Consider one compound from patent US11554182B2, “Macrocyclic complexes of alpha-emitting radionuclides and their use in targeted radiotherapy of cancer” (CORNELL UNIVERSITY, priority 2017, dated 2023).

Series [1] can be described thus: Stability of [^225Ac(macropa)]^+ in human serum (radio-TLC). In kind it is in vitro ADME. How it is done:
[…]. [^225Ac(macropa)]^+ and [^225Ac(DOTA)]^− were prepared using 10^−5 M and 10^−3 M stock solutions (10 μL) of macropa and DOTA, respectively, to give final ligand concentrations of 5.9×10^−7 M (macropa) and 5.9×10^−5 M (DOTA). After confirming a radiochemical yield of >90% by TLC using 0.4 M sodium citrate (pH 4) containing 10% MeOH as the mobile phase, 160 μL of human serum (an equal volume based on labeling reaction volume) were added to each radiolabeled solution. A control solution was also prepared in which water was substituted for ligand. The solutions were monitored over the course of 8 days by iTLC. The plates were developed with EDTA (50 mM, pH 5) as the eluent. Under these conditions, [^225Ac(macropa)]^+ and [^225Ac(DOTA)]^− complexes remained at the baseline (RF=0) and any ^225Ac (^225Ac-EDTA) that had been transchelated by serum migrated with the solvent front (RF=1). Percent of complex remaining intact was calculated.
The long half-life of ^225Ac necessitates its stable complex retention in vivo to avoid off-target damage to normal tissues arising from the release of free ^225Ac^3+. Furthermore, the stability of ^225Ac complexes against transmetalation and transchelation needs to be high. To determine the kinetic inertness, [^225Ac(macropa)]^+ was challenged with La^3+ because of the established high affinity of macropa for this metal ion. […]

The nature of series [2]: Kinetic inertness of ^225Ac complex: transmetalation challenge with La^3+. In kind it is physicochemical. Conditions: 50-fold excess of La^3+, macropa 0.59 μM, RT, over 7 days. Here is the method: General. Stock solutions of La(NO3)3 (0.001 M or 0.1 M) were prepared in H2O. To the radiolabeled samples containing macropa (10 μL of 10^−5 M stock; 1.0×10^−10 moles) or DOTA (10 μL of 10^−3 M stock; 1.0×10^−8 moles) and ^225Ac (10 μL, 26 kBq) in NH4OAc buffer (pH 6, 0.15 M, 150 μL), a 50-fold mole excess of La^3+ was added (5 μL of 0.001 M or 0.1 M stock were added to solutions containing macropa and DOTA, respectively). The solutions were kept at room temperature and analyzed by iTLC at several time points over the course of 8 days. The iTLC plates were developed using citric acid (0.05 M, pH 5) as the eluent. Under these conditions, [^225Ac(macropa)]^+ and [^225Ac(DOTA)]^− remained at the baseline (RF=0) and any unchelated ^225Ac (^225Ac-citrate) migrated with the solvent front (RF=1). Percent of complex remaining intact was calculated by integrating area under the peaks on the radiochromatogram and dividing the counts associated with the ^225Ac-complex (RF=0) by the total counts integrated along the length of the iTLC plate.
The long half-life of ^225Ac necessitates its stable complex retention in vivo to avoid off-target damage to normal tissues arising from the release of free ^225Ac^3+. Furthermore, the stability of ^225Ac complexes against transmetalation and transchelation needs to be high. […]

Consider `O=C([O-])c1cccc(CN2CCOCCOCCN(Cc3cccc(C(=O)[O-])n3)CCOCCOCC2)n1.[225Ac+3]` [[^225Ac(macropa)]^+], for which the “time ^225Ac^3+ remains complexed in human serum” value in series [1] is “at least 8 days”. For the same compound, the “^225Ac complex remaining intact” value in series [2] is 98%.
